Measured values published in publication PMC5908784, “Extracellular loops 2 and 3 of the calcitonin receptor selectively modify agonist binding and efficacy” (Biochemical Pharmacology, 2018).
Substitutions are numbered along the chain they refer to. Read-outs that look alike come from different tables or passages of the source. Values belong to the compound of their own block, whether it stands above or below them. Where a SMILES comes first, the peptide text is derived from it. Bridges are numbered along the chain shown (N, C = ends).

Columns and labels:
[1] = molecular target: T1, hCTR F356A (Homo sapiens, UniProt P30988, F356A); assay: IP1 accumulation; assay type: cell-based; conditions: read-out: Emax (% WT), SEM
T1 construct: c-Myc (N); expressed in transfected cells
T1 sequence (P30988 25-474 F356A): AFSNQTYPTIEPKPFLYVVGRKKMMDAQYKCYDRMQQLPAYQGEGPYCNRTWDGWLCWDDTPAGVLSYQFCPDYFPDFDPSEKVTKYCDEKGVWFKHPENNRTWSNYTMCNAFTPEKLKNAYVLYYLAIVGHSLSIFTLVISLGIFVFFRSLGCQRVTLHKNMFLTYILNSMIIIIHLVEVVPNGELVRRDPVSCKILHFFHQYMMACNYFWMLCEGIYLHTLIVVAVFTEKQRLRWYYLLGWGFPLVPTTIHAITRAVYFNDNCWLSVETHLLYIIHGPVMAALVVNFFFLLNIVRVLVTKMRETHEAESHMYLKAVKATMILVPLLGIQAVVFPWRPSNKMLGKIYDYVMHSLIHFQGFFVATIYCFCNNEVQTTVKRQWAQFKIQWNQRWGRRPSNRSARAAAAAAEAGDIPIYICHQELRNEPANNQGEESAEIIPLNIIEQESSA
Method in brief: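 Concentration-response curves were fitted to a 3-parameter logistic model to estimate EC50 and Emax. Cells had been exposed to ligand for 60 min with LiCl, and lysate IP1 determined by HTRF, with normalization to 100 μM ATP.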

[2] = molecular target: T2, hCTR P360A (Homo sapiens, UniProt P30988, P360A); assay: Heterologous whole cell competition binding; conditions: heterologous competition of 125I-sCT(8-32), whole cells, mean ± S.E.M., SEM
T2 construct: expressed in transfected cells
T2 sequence (P30988 25-474 P360A): T1 sequence (P30988 25-474 F356A) with A332F, P336A
Procedure: (§1) Following overnight incubation non-bound ligand was removed and radioactivity was determined using a gamma counter.
(§2) Data were corrected for radioligand occupancy using the Cheng-Prusoff equation in Prism; as such data are reported as pKi. Emax and EC50 were estimated from concentration-response curves using with a 3-parameter logistic equation in Prism (v7). These values are a composite of functional affinity, efficacy and stimulus response coupling. […] Significance was accepted at P < 0.05.

[3] = molecular target: T3, hCTR N288A (Homo sapiens, UniProt P30988, N288A); assay: Heterologous whole cell competition binding; conditions: heterologous competition of 125I-sCT(8-32), whole cells, mean ± S.E.M., SEM
T3 construct: expressed in transfected cells
T3 sequence (P30988 25-474 N288A): T1 sequence (P30988 25-474 F356A) with N264A, A332F
Procedure: as §1, §2

[4] = molecular target: T4, hCTR D287A (Homo sapiens, UniProt P30988, D287A); assay: IP1 accumulation; assay type: cell-based; conditions: mean ± S.E.M.
T4 construct: c-Myc (N); expressed in transfected cells
T4 sequence (P30988 25-474 D287A): T1 sequence (P30988 25-474 F356A) with D263A, A332F
Procedure: Cells (2.5 × 10^4 cells/well) were plated into 96 well trays and cultured overnight. Cells were stimulated with increasing concentration of ligands for 60 min in the presence of LiCl. Samples were lysed and endogenous IP1 was measured using an IP-One HTRF® assay kit (CisBio) as specified by the manufacturer. Data were normalized to the maximal response elicited by 100 μM of ATP.
IC50 and Bmax values were estimated from competitive inhibition of ^125I-sCT(8-32) binding using a 3-parameter logistic equation (log(inhibitor versus response)) in Prism (v7; Graphpad). Data were corrected for radioligand occupancy using the Cheng-Prusoff equation in Prism; as such data are reported as pKi. Emax and EC50 were estimated from concentration-response curves using with a 3-parameter logistic equation in Prism (v7). These values are a composite of functional affinity, efficacy and stimulus response coupling. […] Derived τ values were normalized to experimentally determined levels of cell surface expression to provide a measure of efficacy (τc) that is independent of affinity and altered cell surface receptor expression. pKi, pKA and log τc values for mutant receptors were statistically compared to those of the WT receptor using a one-way analysis of variance (ANOVA) and Dunnett’s post-test. […]

Compound: CC[C@H](C)[C@H](NC(=O)[C@H](C)NC(=O)[C@@H](NC(=O)[C@H](CCC(N)=O)NC(=O)[C@@H]1CCCN1C(=O)[C@H](Cc1ccccc1)NC(=O)[C@@H](NC(=O)[C@H](Cc1c[nH]cn1)NC(=O)[C@H](Cc1ccccc1)NC(=O)[C@H](CCCCN)NC(=O)[C@H](CC(N)=O)NC(=O)[C@H](Cc1ccccc1)NC(=O)[C@H](CC(=O)O)NC(=O)[C@H](CCC(N)=O)NC(=O)[C@@H](NC(=O)[C@H](Cc1ccc(O)cc1)NC(=O)[C@@H](NC(=O)CNC(=O)[C@H](CC(C)C)NC(=O)[C@H](CCSC)NC(=O)[C@@H]1CSSC[C@H](N)C(=O)NCC(=O)N[C@@H](CC(N)=O)C(=O)N[C@@H](CC(C)C)C(=O)N[C@@H](CO)C(=O)N[C@@H]([C@@H](C)O)C(=O)N1)[C@@H](C)O)[C@@H](C)O)[C@@H](C)O)[C@@H](C)O)C(=O)NCC(=O)N[C@H](C(=O)NCC(=O)N[C@@H](C)C(=O)N1CCC[C@H]1C(N)=O)C(C)C [hCT]
Emax [1]: 69 ± 6%

Ki [2]: 50.1 nM
Ki [3]: 9.33 nM
EC50 ([4]; IP1, CV1-FlpIn cells, 60 min, LiCl): 3.72 nM
Emax ([4]; IP1 maximal response, SEM): 56 ± 7%
Compound: CSCC[C@H](NC(=O)CNC(=O)[C@H](CO)NC(=O)[C@H](Cc1ccccc1)NC(=O)[C@H](CCCNC(=N)N)NC(=O)[C@H](Cc1c[nH]cn1)NC(=O)[C@H](Cc1ccccc1)NC(=O)[C@H](CC(N)=O)NC(=O)[C@H](CC(N)=O)NC(=O)[C@H](CC(C)C)NC(=O)[C@H](CC(N)=O)NC(=O)[C@H](CCCNC(=N)N)NC(=O)[C@H](Cc1c[nH]c2ccccc12)NC(=O)[C@H](Cc1ccc(O)cc1)NC(=O)[C@H](C)NC(=O)[C@H](CO)NC(=O)[C@H](CC(C)C)NC(=O)[C@@H](NC(=O)[C@@H]1CSSC[C@H](N)C(=O)N[C@@H](CO)C(=O)N[C@@H](CC(N)=O)C(=O)N[C@@H](CC(C)C)C(=O)N[C@@H](CO)C(=O)N[C@@H]([C@@H](C)O)C(=O)N1)C(C)C)C(=O)NCC(=O)N[C@@H](Cc1ccccc1)C(=O)NCC(=O)N1CCC[C@H]1C(=O)N[C@@H](CCC(=O)O)C(=O)N[C@H](C(=O)N1CCC[C@H]1C(N)=O)[C@@H](C)O [pCT] (H-CSNLSTCVLSAYWRNLNNFHRFSGMGFGPETP-NH2; disulfide 1-7)

Compound: CC(C)C[C@H](NC(=O)[C@H](CCCCN)NC(=O)CNC(=O)[C@H](CC(C)C)NC(=O)[C@@H](NC(=O)[C@@H]1CSSC[C@H](N)C(=O)N[C@@H](CO)C(=O)N[C@@H](CC(N)=O)C(=O)N[C@@H](CC(C)C)C(=O)N[C@@H](CO)C(=O)N[C@@H]([C@@H](C)O)C(=O)N1)C(C)C)C(=O)N[C@@H](CO)C(=O)N[C@@H](CCC(N)=O)C(=O)N[C@@H](CCC(=O)O)C(=O)N[C@@H](CC(C)C)C(=O)N[C@@H](Cc1c[nH]cn1)C(=O)N[C@@H](CCCCN)C(=O)N[C@@H](CC(C)C)C(=O)N[C@@H](CCC(N)=O)C(=O)N[C@H](C(=O)N[C@@H](Cc1ccc(O)cc1)C(=O)N1CCC[C@H]1C(=O)N[C@@H](CCCNC(=N)N)C(=O)N[C@H](C(=O)N[C@@H](CC(N)=O)C(=O)N[C@H](C(=O)NCC(=O)N[C@@H](CO)C(=O)NCC(=O)N[C@H](C(=O)N1CCC[C@H]1C(N)=O)[C@@H](C)O)[C@@H](C)O)[C@@H](C)O)[C@@H](C)O [sCT]
Emax ([1]; F356A, IP1 maximal response, mean ± S.E.M.): 36 ± 3%
